Assay results from patent US9068958B1, “Use of surface free energy for differential evaluation of crystal, crystal evaluated on basis of surface free energy as index, and pharmaceutical composition prepared by containing the crystal” (POLA PHARMA INC., priority 2012, dated 2015).

What was measured:
[1] = Surface free energy of crystal by liquid penetration rate measurement (contact angle, Owens-Wendt-Rabel-Kaelble method); assay type: physicochemical; conditions: crystal powder; for γS^d, dispersion component of surface free energy / γS^p, polar component of surface free energy: solvents n-hexane, tetrachloromethane, benzene, 1-nitropropane, water; for γS, surface free energy: sum of dispersion and polar component
Protocol: The measurement of the surface free energy of the crystal may be performed in accordance with an ordinary method. For example, the contact angle with respect to the crystal is measured by means of the liquid penetration (permeation) rate measurement (machine type of apparatus: Processor Tensiometer K12, manufacturer: KRUSS GmbH) by using several solvents for which the surface free energy, the dispersion component of the surface free energy, and the polar component of the surface free energy are already known, and thus it is possible to perform the calculation therefrom by applying the model of Owens, Wendt, Rabel, and Kaelble. Preferred solvents for measurement in this method can be appropriately exemplified, for example, by n-hexane, […], benzene, nitrobenzene, 1-nitropropane, and water. As for the method as described above, it is possible to make reference, for example, to a method described in Japanese Patent Application Laid-open No. 2010-183064.
In relation to the surface free energy, the contact angle θ is calculated in accordance with the Washburn's equation from the penetration (permeation) rate of liquid into powder obtained by the liquid penetration (permeation) rate measurement (machine type of apparatus: Processor Tensiometer K12, manufacturer: KRUSS GmbH). The penetration (permeation) rate of the liquid in the chamber into the powder is measured by using a chamber tube shown in FIG. 4. […] Washburn's equation is represented by the following equation 1.
If this equation is converted into the weight of the solvent permeated into the powder per unit time, the following equation 2 is presented.
The contact angle θ is determined by measuring the penetration (permeation) rate by using a solvent for which the surface tension (γL), the density (ρ), and the viscosity (η) of the liquid are known. The polar component and the dispersion component of the surface free energy are calculated in accordance with the Owens-Wendt-Rabel-Kaelble method by using θ thus determined. That is, assuming that the surface free energy is composed of the non-polar dispersion component γ^d and the polar component γ^p, the following equations are presented. γS=γS^d+γS^p γL=γLd+γLp γSL=γS+γL−2√{square root over (yS^d·γL^d)}−2√{square root over (γS^p·γL^p)} Equation 3
If Young's equation, which holds among the surface tension of the liquid, the surface tension of the solid, and the solid-liquid interfacial tension, is substituted with the above, the following equation is obtained.
The contact angle θ is determined, and plotted by using several types of solvents having known γL, γL^d, γL^p, and thus it is possible to determine γS^p from the slope and γs^d from the intercept. n-Hexane, tetrachloromethane, benzene, 1-nitropropane, and water were used as the known solvents.
By utilizing the above, the surface free energy, the dispersion component of the surface free energy, the polar component of the surface free energy, and the ratio (%) of the polar component with respect to the surface free energy were calculated for samples (specimens) manufactured by the following methods.

[2] = Storage testing under severely stressed condition of crystals suspended in water, isomer formation by HPLC; assay type: physicochemical; conditions: light 6000 1×, 80° C., 6 hours, ratio to charging amount of luliconazole
Protocol: The storage testing under severely stressed condition was performed for Crystals 1 to 4. That is, each of the samples was suspended in water (infiltration condition or humidified condition), which was exposed to light at 6000 1× at 80° C. for 6 hours, followed by being collected by filtration and dried. After that, the ratio of the Z isomer of luliconazole with respect to the charging amount of luliconazole was measured and calculated. The measurement was performed by means of HPLC. The HPLC condition was as follows.
Column: CHIRALCEL OD-RH 4.6×150 mm, column temperature: 35° C., mobile phase: mixture solution of methanol/1.8% aqueous solution of potassium hexafluorophosphate (83:17, v/v), flow rate: 0.56 mL/min., detection: 295 nm.
As for the SE isomer, the storage testing under severely stressed testing was performed for the crystal in the same manner as the Z isomer. As a result, any difference was not observed in relation to the amount of formation depending on the difference in the crystal. That is, the tendency of the SE isomer was not observed for the crystal itself.

## N#C/C(=C1/SC[C@@H](c2ccc(Cl)cc2Cl)S1)n1ccnc1 [Crystal 1, Luliconazole]
[1]; listed as 1
  γS^p/γS, ratio of polar component of surface free energy: 44%
  γS^d, dispersion component of surface free energy: 16.1 mJ/m^2
  γS^p, polar component of surface free energy: 12.7 mJ/m^2
  γS, surface free energy: 28.8 mJ/m^2
[2]; listed as 1
  Amount of formation of Z isomer (%) under condition of suspension in water and exposure to light: 0.11%

## N#C/C(=C1/SC[C@@H](c2ccc(Cl)cc2Cl)S1)n1ccnc1 [Crystal 2, Luliconazole]
[1]; listed as 2
  γS^p/γS, ratio of polar component of surface free energy: 29%
  γS^d, dispersion component of surface free energy: 19.5 mJ/m^2
  γS^p, polar component of surface free energy: 7.9 mJ/m^2
  γS, surface free energy: 27.4 mJ/m^2
[2]; listed as 2
  Amount of formation of Z isomer (%) under condition of suspension in water and exposure to light: 0.08%

## N#C/C(=C1/SC[C@@H](c2ccc(Cl)cc2Cl)S1)n1ccnc1 [Crystal 3, Luliconazole]
[1]; listed as 3
  γS^p/γS, ratio of polar component of surface free energy: 31%
  γS^d, dispersion component of surface free energy: 18.4 mJ/m^2
  γS^p, polar component of surface free energy: 8.2 mJ/m^2
  γS, surface free energy: 26.6 mJ/m^2
[2]; listed as 3
  Amount of formation of Z isomer (%) under condition of suspension in water and exposure to light: 0.07%

## N#C/C(=C1/SC[C@@H](c2ccc(Cl)cc2Cl)S1)n1ccnc1 [Crystal 4, Luliconazole]
[1]; listed as 4
  γS^p/γS, ratio of polar component of surface free energy: 20%
  γS^d, dispersion component of surface free energy: 20.3 mJ/m^2
  γS^p, polar component of surface free energy: 5.2 mJ/m^2
  γS, surface free energy: 25.5 mJ/m^2
[2]; listed as 4
  Amount of formation of Z isomer (%) under condition of suspension in water and exposure to light: 0.07%
